Measured values taken from patent publication US12459951B2, “Compounds that interact with RAS superfamily proteins for treatment of cancers, inflammatory diseases, rasopathies, and fibrotic disease” (SHY Therapeutics, LLC, priority 2022, dated 2025).
Read-outs that look alike come from different tables or passages of the source.

Key:
[1] = system: Smad2/Smad3 phosphorylation; test: Phospho-Smad2/3 Inhibition Assay (western blot), Panc-1; format: cell-based, human; settings: at 10 μM, Panc-1 pancreatic cancer cell line; starred symbols = activation
How it was run: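 Western blotting of lysates (15-50 μg protein) read phosphorylation of Smad2 Ser465/467 and Smad3 Ser423/425. Before lysis, Panc-1 cells got 1 h of 10 ng/ml TGF-b1 following 3 h compound exposure at 37° C (10 μM final, or serial dilutions for IC50, 0.3% DMSO) after overnight 0.5% FBS starvation.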

[2] = system: MiaPaca-2 (expressing KRAS G12C mutant); test: Proliferation Assay (Cell Viability Assay); format: cell-based; settings: Homo sapiens, MIA PaCa-2
How it was run: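 After 2–4 days' exposure at 37 °C, 5% CO2 to a single 10 μM final concentration or a dilution series (IC50), percent proliferation inhibition was derived from CellTiter 96 Aqueous One viability readings. The medium contained 0.3% DMSO and 10% FBS. KRAS G12C MiaPaca-2 cells were plated at 2000–5000/well the day before.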

[3] = read-out: Proliferation in MiaPaca-2: IC50

Cc1c(-c2ccn(C)n2)cn2nc(-c3nccn3C)nc(Nc3ccc(N4CCOCC4)cn3)c12 [Compound 247, 5-Methyl-2-(1-methyl-1H-imidazol-2-yl)-6-(1-methyl-1H-pyrazol-3-yl)-N-(5-morpholinopyridin-2-yl)pyrrolo[2,1-f][1,2,4]triazin-4-amine]
% inh of Smad2/3 phosphorylation in Panc-1 [1]: C* (C* = 46-75% activation) | IC50 [2, 3]: 510 to 1000 nM

COc1cc(Nc2nc(-c3nccn3C)nn3cc(-c4cccnc4)c(C)c23)ncn1 [Compound 48, N-(6-Methoxypyrimidin-4-yl)-5-methyl-2-(1-methyl-1H-imidazol-2-yl)-6-(pyridin-3-yl)pyrrolo[2,1-f][1,2,4]triazin-4-amine]
% inh of Smad2/3 phosphorylation in Panc-1 [1]: B (B = 26-45% inhibition) | IC50 [2, 3]: < 150 nM

COc1cc(Nc2nc(-c3nccn3C)nn3cc(-c4cccc(OC)n4)c(C)c23)ncn1 [Compound 65, 6-(6-Methoxypyridin-2-yl)-N-(6-methoxypyrimidin-4-yl)-5-methyl-2-(1-methyl-1H-imidazol-2-yl)pyrrolo[2,1-f][1,2,4]triazin-4-amine]
% inh of Smad2/3 phosphorylation in Panc-1 [1]: A* (A* = 1-25% activation) | IC50 [2, 3]: < 150 nM

Cc1c(-c2ccn(C(C)C)n2)cn2nc(-c3nccn3C)nc(Nc3nnco3)c12 [Compound 59, N-(6-(1-Isopropyl-1H-pyrazol-3-yl)-5-methyl-2-(1-methyl-1H-imidazol-2-yl)pyrrolo[2,1-f][1,2,4]triazin-4-yl)-1,3,4-oxadiazol-2-amine]
% inh of Smad2/3 phosphorylation in Panc-1 [1]: D (D = 76-100% inhibition) | IC50 [2, 3]: 150 to 500 nM

CCn1ccc(-c2cn3nc(-c4nccn4C)nc(Nc4cc(OC)ncn4)c3c2C)n1 [Compound 64, 6-(1-Ethyl-1H-pyrazol-3-yl)-N-(6-methoxypyrimidin-4-yl)-5-methyl-2-(1-methyl-1H-imidazol-2-yl)pyrrolo[2,1-f][1,2,4]triazin-4-amine]
% inh of Smad2/3 phosphorylation in Panc-1 [1]: A (A = 1-25% inhibition) | IC50 [2, 3]: < 150 nM

Cc1c(-c2ccn(C)n2)cn2nc(-c3nccn3C)nc(-n3[nH]c(N)cc3=O)c12 [Compound 261, 5-Amino-2-(5-methyl-2-(1-methyl-1H-imidazol-2-yl)-6-(1-methyl-1H-pyrazol-3-yl)pyrrolo[2,1-f][1,2,4]triazin-4-yl)-1,2-dihydro-3H-pyrazol-3-one]
% inh of Smad2/3 phosphorylation in Panc-1 [1]: B* (B* = 26-45% activation) | IC50 [2, 3]: > 1000 nM

Cc1c(-c2ccn(C)n2)cn2nc(-c3nccn3C)nc(N3CCc4cc(C(F)(F)F)cnc43)c12 [Compound 251, 5-Methyl-2-(1-methyl-1H-imidazol-2-yl)-6-(1-methyl-1H-pyrazol-3-yl)-4-(5-(trifluoromethyl)-2,3-dihydro-1H-pyrrolo[2,3-b]pyridin-1-yl)pyrrolo[2,1-f][1,2,4]triazine]
% inh of Smad2/3 phosphorylation in Panc-1 [1]: A* (A* = 1-25% activation) | IC50 [2, 3]: > 1000 nM

Cc1cc(Nc2nc(-c3nccn3C)nn3cc(-c4ccn(C)n4)c(C)c23)n[nH]1 [Compound 255, 5-Methyl-2-(1-methyl-1H-imidazol-2-yl)-6-(1-methyl-1H-pyrazol-3-yl)-N-(5-methyl-1H-pyrazol-3-yl)pyrrolo[2,1-f][1,2,4]triazin-4-amine]
% inh of Smad2/3 phosphorylation in Panc-1 [1]: D* (D* = 76-100% activation) | IC50 ([2]; Proliferation assay, MiaPaca-2, read-out: MiaPaca-2 IC50 (nM) Pancreatic): 1 to 10 nM | IC50 [2, 3]: < 150 nM

COc1cc(-c2cn3nc(-c4nccn4C)nc(Nc4cc(OC)ncn4)c3c2C)ccn1 [Compound 50, 6-(2-Methoxypyridin-4-yl)-N-(6-methoxypyrimidin-4-yl)-5-methyl-2-(1-methyl-1H-imidazol-2-yl)pyrrolo[2,1-f][1,2,4]triazin-4-amine]
% inh of Smad2/3 phosphorylation in Panc-1 [1]: B (B = 26-45% inhibition) | IC50 [2, 3]: < 150 nM

Cc1c(-c2ccn(C(C)C)n2)cn2nc(-c3nccn3C)nc(Nc3ccncc3)c12 [Compound 52, 6-(1-Isopropyl-1H-pyrazol-3-yl)-5-methyl-2-(1-methyl-1H-imidazol-2-yl)-N-(pyridin-4-yl)pyrrolo[2,1-f][1,2,4]triazin-4-amine]
% inh of Smad2/3 phosphorylation in Panc-1 [1]: D (D = 76-100% inhibition) | IC50 [2, 3]: > 1000 nM

COc1ccnc(Nc2nc(-c3nccn3C)nn3cc(-c4ccn(C)n4)c(C4CC4)c23)c1 [Compound 276, 5-Cyclopropyl-N-(4-methoxypyridin-2-yl)-2-(1-methyl-1H-imidazol-2-yl)-6-(1-methyl-1H-pyrazol-3-yl)pyrrolo[2,1-f][1,2,4]triazin-4-amine]
% inh of Smad2/3 phosphorylation in Panc-1 [1]: B (B = 26-45% inhibition) | IC50 [2, 3]: 150 to 500 nM

Cc1c(-c2ccn(C)n2)cn2nc(-c3nccn3C)nc(Nc3cc(-c4ccccc4)[nH]n3)c12 [Compound 263, 5-Methyl-2-(1-methyl-1H-imidazol-2-yl)-6-(1-methyl-1H-pyrazol-3-yl)-N-(5-phenyl-1H-pyrazol-3-yl)pyrrolo[2,1-f][1,2,4]triazin-4-amine]
% inh of Smad2/3 phosphorylation in Panc-1 [1]: C (C = 46-75% inhibition) | IC50 [2, 3]: < 150 nM

COc1cccc(-c2cn3nc(-c4nccn4C)nc(N[C@@H]4CC[C@H]4OC)c3c2-c2ccccc2)c1C (racemic) [Compound 272, rac 6-(3-Methoxy-2-methylphenyl)-N-((1R,2R)-2-methoxycyclobutyl)-2-(1-methyl-1H-imidazol-2-yl)-5-phenylpyrrolo[2,1-f][1,2,4]triazin-4-amine]
% inh of Smad2/3 phosphorylation in Panc-1 [1]: D (D = 76-100% inhibition) | IC50 [2, 3]: > 1000 nM

COc1cccc(-c2cn3nc(-c4nccn4C)nc(O)c3c2-c2ccccc2)c1Cl [Compound 28, 6-(2-Chloro-3-methoxyphenyl)-2-(1-methyl-1H-imidazol-2-yl)-5-phenylpyrrolo[2,1-f][1,2,4]triazin-4-ol]
% inh of Smad2/3 phosphorylation in Panc-1 [1]: 0 (0 = 0% inhibition) | IC50 [2, 3]: > 1000 nM

COc1cccc(-c2cn3nc(-c4nccn4C)nc(N[C@@H]4CC[C@H](OC)C4)c3c2-c2ccccc2)c1Cl (racemic) [Compound 33, rac 6-(2-Chloro-3-methoxyphenyl)-N-((1R,3S)-3-methoxycyclopentyl)-2-(1-methyl-1H-imidazol-2-yl)-5-phenylpyrrolo[2,1-f][1,2,4]triazin-4-amine]
% inh of Smad2/3 phosphorylation in Panc-1 [1]: D (D = 76-100% inhibition) | IC50 [2, 3]: 510 to 1000 nM

Cc1c(-c2ccn(C(C)C)n2)cn2nc(-c3nccn3C)nc(Nc3cc(C4CC4)n[nH]3)c12 [Compound 68, N-(3-Cyclopropyl-1H-pyrazol-5-yl)-6-(1-isopropyl-1H-pyrazol-3-yl)-5-methyl-2-(1-methyl-1H-imidazol-2-yl)pyrrolo[2,1-f][1,2,4]triazin-4-amine]
% inh of Smad2/3 phosphorylation in Panc-1 [1]: A* (A* = 1-25% activation) | IC50 [2, 3]: < 150 nM

COc1ccc(F)c(-c2cn3nc(-c4nccn4C)nc(N[C@H]4C[C@H](OC)C4)c3c2-c2ccccc2)c1F [Compound 273, 6-(2,6-Difluoro-3-methoxyphenyl)-N-((1r,3r)-3-methoxycyclobutyl)-2-(1-methyl-1H-imidazol-2-yl)-5-phenylpyrrolo[2,1-f][1,2,4]triazin-4-amine]
% inh of Smad2/3 phosphorylation in Panc-1 [1]: D (D = 76-100% inhibition) | IC50 [2, 3]: > 1000 nM

Cc1c(-c2ccn(C(C)C)n2)cn2nc(-c3nccn3C)nc(Nc3nc(C4CC4)no3)c12 [Compound 70, 3-Cyclopropyl-N-(6-(1-isopropyl-1H-pyrazol-3-yl)-5-methyl-2-(1-methyl-1H-imidazol-2-yl)pyrrolo[2,1-f][1,2,4]triazin-4-yl)-1,2,4-oxadiazol-5-amine]
% inh of Smad2/3 phosphorylation in Panc-1 [1]: 0 (0 = 0% inhibition) | IC50 [2, 3]: > 1000 nM

COc1ccc(Nc2nc(-c3nccn3C)nn3cc(-c4ccn(C(C)C)n4)c(C)c23)nn1 [Compound 74, 6-(1-Isopropyl-1H-pyrazol-3-yl)-N-(6-methoxypyridazin-3-yl)-5-methyl-2-(1-methyl-1H-imidazol-2-yl)pyrrolo[2,1-f][1,2,4]triazin-4-amine]
% inh of Smad2/3 phosphorylation in Panc-1 [1]: A* (A* = 1-25% activation) | IC50 [2, 3]: 150 to 500 nM

COCCNc1nc(-c2nccn2C)nn2cc(-c3cccc(OC)c3Cl)c(-c3ccccc3)c12 [Compound 29, 6-(2-Chloro-3-methoxyphenyl)-N-(2-methoxyethyl)-2-(1-methyl-1H-imidazol-2-yl)-5-phenylpyrrolo[2,1-f][1,2,4]triazin-4-amine]
% inh of Smad2/3 phosphorylation in Panc-1 [1]: D (D = 76-100% inhibition) | IC50 [2, 3]: 510 to 1000 nM

COc1cc(Nc2nc(-c3nccn3C)nn3cc(-c4ccncc4)c(C)c23)ncn1 [Compound 49, N-(6-Methoxypyrimidin-4-yl)-5-methyl-2-(1-methyl-1H-imidazol-2-yl)-6-(pyridin-4-yl)pyrrolo[2,1-f][1,2,4]triazin-4-amine]
% inh of Smad2/3 phosphorylation in Panc-1 [1]: B (B = 26-45% inhibition) | IC50 [2, 3]: < 150 nM

COc1cc(Nc2nc(-c3nccn3C)nn3cc(-c4ccn(C)n4)c(C)c23)ncc1-n1cnc(C)c1 [Compound 244, N-(4-Methoxy-5-(4-methyl-1H-imidazol-1-yl)pyridin-2-yl)-5-methyl-2-(1-methyl-1H-imidazol-2-yl)-6-(1-methyl-1H-pyrazol-3-yl)pyrrolo[2,1-f][1,2,4]triazin-4-amine]
% inh of Smad2/3 phosphorylation in Panc-1 [1]: A* (A* = 1-25% activation) | IC50 [2, 3]: < 150 nM

COc1cccc(-c2cn3nc(-c4nccn4C)nc(N[C@@H]4CC[C@@H](OC)C4)c3c2-c2ccccn2)c1F (racemic) [Compound 46, rac 6-(2-Fluoro-3-methoxyphenyl)-N-((1R,3R)-3-methoxycyclopentyl)-2-(1-methyl-1H-imidazol-2-yl)-5-(pyridin-2-yl)pyrrolo[2,1-f][1,2,4]triazin-4-amine]
% inh of Smad2/3 phosphorylation in Panc-1 [1]: 0 (0 = 0% inhibition) | IC50 [2, 3]: > 1000 nM
